Holding throughout (format): biochemical
One test deals with adenosine A1 receptor (Homo sapiens (Human), UniProt P30542). Put plainly: Adenosine receptor activity assay (Table 1), A1 cAMP. The procedure:
(§1) Table 1. Compounds (e.g., Adenosine Receptor modulators) and activity assay results. The legend is as follows: A=<10 nM; B=10-50 nM; C=50-100 nM; D=100-500; and E=>500 nM. The ratio corresponds to the A2A activity to the A2B activity; or A2A/A2B.

The target of another test is adenosine A3 receptor (Homo sapiens (Human), UniProt P0DMS8). Put plainly: Adenosine receptor activity assay (Table 1), A3 cAMP. The procedure:
as §1

In the next test the target is adenosine A2B receptor (Homo sapiens (Human), UniProt P29275). Put plainly: Adenosine receptor activity assay (Table 1), A2B activity. Conditions: for IC50: read-out: Ave A2B cAMP IC50.
Chain of adenosine A2B receptor (P29275 whole entry): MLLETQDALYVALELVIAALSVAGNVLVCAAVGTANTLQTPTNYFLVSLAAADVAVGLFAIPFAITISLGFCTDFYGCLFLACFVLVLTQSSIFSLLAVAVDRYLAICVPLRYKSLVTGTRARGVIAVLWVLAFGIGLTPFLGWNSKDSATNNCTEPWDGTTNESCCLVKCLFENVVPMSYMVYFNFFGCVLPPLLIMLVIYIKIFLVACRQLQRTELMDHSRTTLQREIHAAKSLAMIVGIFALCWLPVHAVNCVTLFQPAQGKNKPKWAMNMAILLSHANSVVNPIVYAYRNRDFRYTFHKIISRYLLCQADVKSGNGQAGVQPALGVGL
A further test has as its target adenosine A2A receptor (Homo sapiens (Human), UniProt P29274). The experiment in a line: Adenosine receptor activity assay (Table 1), A2A activity. Conditions: read-out: Ave A2A cAMP IC50.
The mark [1] stands for this setting: A2A activity to the A2B activity, A2A/A2B.
Setting [2] is: A2A activity to A2B activity (A2A/A2B).

Chain of adenosine A2A receptor (P29274 whole entry): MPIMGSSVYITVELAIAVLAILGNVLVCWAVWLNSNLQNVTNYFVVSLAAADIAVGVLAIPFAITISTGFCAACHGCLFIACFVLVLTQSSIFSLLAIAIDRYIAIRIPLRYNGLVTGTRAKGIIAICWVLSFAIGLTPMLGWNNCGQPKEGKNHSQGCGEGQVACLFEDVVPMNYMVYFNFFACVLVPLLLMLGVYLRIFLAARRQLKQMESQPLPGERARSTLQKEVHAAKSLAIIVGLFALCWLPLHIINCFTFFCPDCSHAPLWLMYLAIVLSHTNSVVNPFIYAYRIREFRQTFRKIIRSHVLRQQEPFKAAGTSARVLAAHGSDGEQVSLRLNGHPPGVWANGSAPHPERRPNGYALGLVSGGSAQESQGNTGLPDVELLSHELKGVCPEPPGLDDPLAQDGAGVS
Chain of adenosine A1 receptor (P30542 whole entry): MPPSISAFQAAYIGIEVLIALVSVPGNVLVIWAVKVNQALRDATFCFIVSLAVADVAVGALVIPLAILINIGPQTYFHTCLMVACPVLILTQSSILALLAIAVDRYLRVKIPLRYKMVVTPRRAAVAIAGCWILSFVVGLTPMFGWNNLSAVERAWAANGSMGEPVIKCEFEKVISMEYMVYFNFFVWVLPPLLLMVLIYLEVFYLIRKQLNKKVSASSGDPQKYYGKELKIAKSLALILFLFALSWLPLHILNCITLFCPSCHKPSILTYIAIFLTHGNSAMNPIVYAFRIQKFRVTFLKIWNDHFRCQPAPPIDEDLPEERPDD
Chain of adenosine A3 receptor (P0DMS8 whole entry): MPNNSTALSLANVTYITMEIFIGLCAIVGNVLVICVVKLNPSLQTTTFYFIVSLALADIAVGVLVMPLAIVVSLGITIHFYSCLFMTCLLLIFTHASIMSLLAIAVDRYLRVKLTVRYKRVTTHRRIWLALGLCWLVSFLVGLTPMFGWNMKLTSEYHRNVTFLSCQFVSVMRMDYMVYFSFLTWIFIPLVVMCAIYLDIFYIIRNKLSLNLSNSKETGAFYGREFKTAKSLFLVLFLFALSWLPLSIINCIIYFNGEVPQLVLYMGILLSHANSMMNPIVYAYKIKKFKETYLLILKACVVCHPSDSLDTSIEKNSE

Regarding `Cc1cc2nc(N[C@@H](C)c3cncc(F)c3)nc(C(=O)N3CC(NC(=O)C(C)C)C3)c2s1` [Example Z588, (S)—N-(1-(2-((1-(5-Fluoropyridin-3-yl)ethyl)amino)-6-methylthieno[3,2-d]pyrimidine-4-carbonyl)azetidin-3-yl)isobutyramide], the IC50 against adenosine A1 receptor was more than 500 nM; at adenosine A3 receptor it was 100 to 500 nM; on adenosine A2B receptor, 10 to 50 nM; at adenosine A2A receptor, less than 10 nM. In addition, the Ratio on adenosine A2B receptor (setting [1]) was 0.26.

Consider `COC[C@H]1CCN(C(=O)c2nc(N[C@@H](C)c3ccccn3)nc3cc(C)sc23)C1` [Example Z468, ((S)-3-(Methoxymethyl)pyrrolidin-1-yl)(6-methyl-2-(((S)-1-(pyridin-2-yl)ethyl)amino)thieno[3,2-d]pyrimidin-4-yl)methanone], for which the IC50 was more than 500 nM on adenosine A1 receptor, more than 500 nM against adenosine A3 receptor, 10 to 50 nM on adenosine A2B receptor and more than 500 nM on adenosine A2A receptor. In addition, the Ratio on adenosine A2B receptor (setting [1]) turned out to be 24.67.

As for `C[C@H](Nc1nc(C(=O)N2CC(CNC(=O)OC(C)(C)C)C2)c2sccc2n1)c1cncc(F)c1` [Example Z404, tert-Butyl (S)-((1-(2-((1-(5-fluoropyridin-3-yl)ethyl)amino)thieno[3,2-d]pyrimidine-4-carbonyl)azetidin-3-yl)methyl)carbamate], the half-maximal inhibitory concentration (IC50) against adenosine A1 receptor is more than 500 nM; against adenosine A3 receptor it was more than 500 nM; at adenosine A2B receptor, less than 10 nM; at adenosine A2A receptor, 10 to 50 nM. Further, at adenosine A2B receptor (setting [1]), the Ratio stood at 5.80.

As for `Cc1cc2nc(N[C@@H](C)c3ccccn3)nc(C(=O)NCc3cccnc3)c2s1` [Example Z462, (S)-6-Methyl-2-((1-(pyridin-2-yl)ethyl)amino)-N-(pyridin-3-ylmethyl)thieno[3,2-d]pyrimidine-4-carboxamide], the IC50 was more than 500 nM against adenosine A1 receptor, 50 to 100 nM against adenosine A3 receptor, 10 to 50 nM at adenosine A2B receptor and 50 to 100 nM on adenosine A2A receptor. At adenosine A2B receptor (setting [1]), the Ratio was found to be 2.70.

On to `CC(=O)Nc1ccc(CCNC(=O)c2nc(N[C@@H](C)c3cccnc3)nc3cc(C)sc23)cc1` [Example Z497, (S)—N-(4-Acetamidophenethyl)-6-methyl-2-((1-(pyridin-3-yl)ethyl)amino)thieno[3,2-d]pyrimidine-4-carboxamide], for which the IC50 against adenosine A3 receptor was 50 to 100 nM; on adenosine A2B receptor it was 10 to 50 nM.

As to `O=C(NCc1ccc(C(F)(F)F)nc1)c1nc(NCc2ccc(C(F)(F)F)nc2)nc2ccsc12` [Example Z72, N-((6-(Trifluoromethyl)pyridin-3-yl)methyl)-2-(((6-(trifluoromethyl)pyridin-3-yl)methyl)amino)thieno[3,2-d]pyrimidine-4-carboxamide], the Ratio on adenosine A2B receptor (setting [2]) stood at 1.00. The IC50 on adenosine A2B receptor and on adenosine A2A receptor was more than 500 nM each time.

Turning to `C[C@H](Nc1nc(C(=O)N2CC(C(=O)NCCO)C2)c2sccc2n1)c1cncc(F)c1` [Example Z547, (S)-1-(2-((1-(5-Fluoropyridin-3-yl)ethyl)amino)thieno[3,2-d]pyrimidine-4-carbonyl)-N-(2-hydroxyethyl)azetidine-3-carboxamide], the Ratio at adenosine A2B receptor (setting [1]) is reported as 43.40. The 50% inhibitory concentration (IC50) at adenosine A2B receptor was 50 to 100 nM; at adenosine A2A receptor it was more than 500 nM.

For the compound `COc1ccc([C@H](C)Nc2nc(C(=O)N3CC(NC(=O)OC(C)C)C3)c3sc(C)cc3n2)cc1` [Example Z555, Isopropyl (S)-(1-(2-((1-(4-methoxyphenyl)ethyl)amino)-6-methylthieno[3,2-d]pyrimidine-4-carbonyl)azetidin-3-yl)carbamate], the Ratio on adenosine A2B receptor (setting [1]) worked out at 0.18. Further, the IC50 on adenosine A2B receptor lay in the range of 100 to 500 nM; on adenosine A2A receptor, 50 to 100 nM.

Turning to `O=C(c1nc(NCc2cccc(Cl)c2)nc2ccsc12)N1CCCC1` [Example Z120, (2-((3-Chlorobenzyl)amino)thieno[3,2-d]pyrimidin-4-yl)(pyrrolidin-1-yl)methanone], at adenosine A2B receptor (setting [2]), the Ratio came to 13.39. The IC50 on adenosine A2B receptor lay in the range of 10 to 50 nM; at adenosine A2A receptor, 100 to 500 nM.

With `COC1(C)CN(C(=O)c2nc(N[C@@H](C)c3ccccn3)nc3ccsc23)C1` [Example Z486, (S)-(3-Methoxy-3-methylazetidin-1-yl)(2-((1-(pyridin-2-yl)ethyl)amino)thieno[3,2-d]pyrimidin-4-yl)methanone], the Ratio on adenosine A2B receptor (setting [1]) was 10.58. The results for the IC50 on adenosine A2B receptor and on adenosine A2A receptor were 50 to 100 nM and more than 500 nM, respectively.

Turning to `C[C@H](Nc1nc(C(=O)N[C@H]2CCNC2)c2sccc2n1)c1ccccn1` [Example Z150, 2-(((S)-1-(pyridin-2-yl)ethyl)amino)-N—((S)-pyrrolidin-3-yl)thieno[3,2-d]pyrimidine-4-carboxamide], the Ratio on adenosine A2B receptor (setting [2]) was found to be 7.05. Also, the IC50 on adenosine A2B receptor and at adenosine A2A receptor was more than 500 nM in each case.

As for `O=C(c1nc(NCc2cncnc2)nc2ccsc12)N1CCCC1` [Example Z5, (2-((Pyrimidin-5-ylmethyl)amino)thieno[3,2-d]pyrimidin-4-yl)(pyrrolidin-1-yl)methanone], at adenosine A2B receptor (setting [2]), the Ratio is given as 18.06. In addition, the IC50 on adenosine A2B receptor is 100 to 500 nM; at adenosine A2A receptor, more than 500 nM.

As for `CO[C@H]1CCN(C(=O)c2nc(N[C@@H](C)c3ccccn3)nc3c(C)csc23)C1` [Example Z440, ((S)-3-Methoxypyrrolidin-1-yl)(7-methyl-2-(((S)-1-(pyridin-2-yl)ethyl)amino)thieno[3,2-d]pyrimidin-4-yl)methanone], the Ratio on adenosine A2B receptor (setting [1]) is 1.91. In addition, the IC50 on adenosine A2B receptor and at adenosine A2A receptor was 100 to 500 nM in each case.

In the case of `C[C@H](Nc1nc(C(=O)NCCc2ccc(NC(=O)OC(C)(C)C)cc2)c2sccc2n1)c1cncc(F)c1` [Example Z482, tert-Butyl (S)-(4-(2-(2-((1-(5-fluoropyridin-3-yl)ethyl)amino)thieno[3,2-d]pyrimidine-4-carboxamido)ethyl)phenyl)carbamate], on adenosine A2B receptor (setting [1]), the Ratio amounted to 5.32. In addition, the IC50 at adenosine A2B receptor was 100 to 500 nM; on adenosine A2A receptor, more than 500 nM.

Consider `C[C@H](Nc1nc(C(=O)NCCc2ccc(S(N)(=O)=O)cc2)c2sccc2n1)c1cncc(F)c1` [Example Z454, (S)-2-((1-(5-Fluoropyridin-3-yl)ethyl)amino)-N-(4-sulfamoylphenethyl)thieno[3,2-d]pyrimidine-4-carboxamide], for which the Ratio at adenosine A2B receptor (setting [1]) came to 38.75. Besides, the IC50 was 10 to 50 nM at adenosine A2B receptor and more than 500 nM on adenosine A2A receptor.

With `C[C@H](Nc1nc(C(=O)NCC2CCN(CCc3ccccc3)CC2)c2sccc2n1)c1ccccn1` [Example Z446, (S)—N-((1-Phenethylpiperidin-4-yl)methyl)-2-((1-(pyridin-2-yl)ethyl)amino)thieno[3,2-d]pyrimidine-4-carboxamide], the Ratio on adenosine A2B receptor (setting [1]) is 0.56. Also, the IC50 at adenosine A2B receptor and on adenosine A2A receptor was more than 500 nM each time.

Regarding `Nc1cc2nc(NCc3cccnc3)nc(C(=O)N3CCCC3)c2s1` [Example Z186, (6-Amino-2-((pyridin-3-ylmethyl)amino)thieno[3,2-d]pyrimidin-4-yl)(pyrrolidin-1-yl)methanone], the Ratio on adenosine A2B receptor (setting [2]) is reported as 29.35. In addition, the IC50 is 50 to 100 nM at adenosine A2B receptor and more than 500 nM at adenosine A2A receptor.

As usually defined, the IC50 is the point on the concentration scale where inhibition reaches its midpoint.
